Laboratory results taken from paper PMC12445744, “Molecular docking to homology models of human and Trypanosoma brucei ERK8 that identified ortholog-specific inhibitors” (PLOS Neglected Tropical Diseases, 2025).
Where “and” joins values, the source holds several entries; their conditions need not be identical. Identical values can stand only once.

Target: T1, HsERK8 (Homo sapiens, UniProt Q8TD08)
T1 construct: plasmid pGEX2T expressing the full-length hERK8 coding region; made in house; host or cells: Escherichia coli Rosetta 2 (DE3)
T1 sequence (Q8TD08 1-544): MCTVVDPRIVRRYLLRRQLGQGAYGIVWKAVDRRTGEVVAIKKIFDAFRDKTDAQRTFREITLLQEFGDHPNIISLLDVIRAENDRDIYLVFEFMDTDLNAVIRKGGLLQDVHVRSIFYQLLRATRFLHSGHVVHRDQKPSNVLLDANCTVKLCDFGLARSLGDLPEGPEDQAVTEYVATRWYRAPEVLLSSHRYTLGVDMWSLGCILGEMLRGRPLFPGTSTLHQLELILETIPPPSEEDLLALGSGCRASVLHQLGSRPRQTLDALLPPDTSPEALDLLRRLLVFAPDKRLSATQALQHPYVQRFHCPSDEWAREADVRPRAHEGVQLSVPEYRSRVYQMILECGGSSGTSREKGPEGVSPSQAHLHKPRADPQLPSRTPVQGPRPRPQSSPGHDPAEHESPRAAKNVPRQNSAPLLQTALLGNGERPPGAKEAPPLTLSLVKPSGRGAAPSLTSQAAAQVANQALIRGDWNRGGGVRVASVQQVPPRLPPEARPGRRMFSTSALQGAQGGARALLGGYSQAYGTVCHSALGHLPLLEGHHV
Experiment: Luciferase-based kinase inhibition assay (ATP luminescence), GST-tagged HsERK8 with MBP substrate
Type: biochemical
Conditions: for raw luminescence, HsERK8: replicate wells; for raw luminescence, HsERK8 / Luminescence Raw (Kinase-Glo): listed as Sil; for Luminescence Raw (Kinase-Glo): HsERK8
Method: Escherichia coli strain Rosetta 2 (DE3) (Cat# 71397, MilliporeSigma, Burlington, MA) was transformed with the plasmid pGEX2T expressing the full-length hERK8 coding region or pGSTAg expressing the full-length TbERK8 coding region. One liter of Terrific Broth media containing 100 μg/ml Ampicillin and 30 μg/ml chloramphenicol in 2 L baffled flasks was inoculated with 25 mL from an overnight culture of Rosetta 2 strains harboring either the pGEX2T-hERK8 or pGSTAg-TbERK8 plasmid. Two baffled flasks were inoculated with each overnight strain and incubated and shaken at 175 RPM in a New Brunswick Innova 44R Incubator Shaker (Fischer Scientific, Pittsburgh, PA) at 37 °C until the cultures reached an O.D.600 of 0.94. Once the cultures in the flask reached the target O.D.600, the flasks were cooled to 4 °C in an ice water bath. The cooled cultures were induced by adding isopropyl β-D-1-thiogalactopyranoside (IPTG) to a final concentration of 0.1 mM and shaken at 16 °C for 16 hours at 175 RPM in a New Brunswick Innova 44R Incubator Shaker (Fischer Scientific, Pittsburgh, PA). On the next day, the cultures were pelleted by centrifugation at 9000 xg in a JLA 10.500 rotor (Beckman Coulter; Brea, CA), and the media was decanted. The pellet was flash-frozen in liquid nitrogen and then thawed on ice. The thawed pellet was resuspended in lysis buffer (25 mM Tris, 75 mM NaCl, 0.5% TritonX-100 and 0.5% Nonidet P-40, 1 mM phenylmethanesulfonyl fluoride, 1 mM benzamidine⋅HCl) and lysed using a microfluidizer M-110P from Microfluidics (Westwood, MA). The crude lysates were clarified by centrifugation at 140,000 xg in a 45Ti rotor (Beckman Coulter, Brea, CA) for 30 min at 4°C. The clarified lysate was loaded by gravity to a 3 mL glutathione agarose resin column (Cat# G-250–10, GOLDBIO, St. Louis, MO) formed in a 1.5 × 20 cm glass chromatography column (Cat# 7371522, Bio-Rad, Hercules, CA). The column was washed with 30 mL of PBS (pH 7.4) containing 1 mM DTT. Elution buffer (50 mM Tris buffer pH 8.0 containing 10 mM reduced glutathione and 1 mM DTT was added to the washed column), and 1 mL fractions were collected by gravity and examined by SDS-PAGE stained by Coomassie dye. Peak fractions pooled from the elution were dialyzed (4x 1:500 dilutions) in kinase buffer (30 mM Tris, pH 7.4, 10 mM MgCl2, 1 mM DTT, 5% glycerol).
We performed kinase assays in buffer K (30 mM Tris pH 7.4, 10 mM MgCl2, 1 mM DTT, 5% glycerol, 50 μM ATP, and 0.1 mg/mL BSA) at 30°C for 30 min in 30 μL reactions. GST-tagged HsERK8 and TbERK8 were tested using myelin basic protein (MBP) (Cat# 13–110, Millipore, Darmstadt, Germany) as the substrate at increasing concentrations to determine the optimal activity for the assay. ATP consumption was determined by adding equal volumes of the kinase assay reagent (Promega, Cat# V5601, Madison, WI) following the manufacturer’s protocol. Luminescence was measured using the microplate reader (SpectraMax L, Molecular Devices, Sunnyvale, CA).
These compounds were screened for kinase inhibition utilizing a luciferase-based assay. Briefly, the kinases were tested using MBP as the substrate at a 14-fold molar excess in 384-well flat-bottom white plates (BRANDTECH Scientific, Cat# 781681, Essex, CT). These compounds were tested at concentrations ranging from […] to 150 nM. The kinases plus MBP substrate reactions were incubated with each inhibitor for 30 minutes at 30°C. Equal volumes of kinase assay mix Promega (Cat# V5601, Madison, WI) were added to the kinase/inhibitor reaction after 30 minutes, following the manufacturer’s protocol. ATP luminescence was measured using a microplate reader (SpectraMax L, Molecular Devices, Sunnyvale, CA). IC50 values were calculated from assays done in triplicate by fitting the data using Prism 8.1.1 (GraphPad).

## CCCc1nn(C)c2c(=O)[nH]c(-c3cc(S(=O)(=O)N4CCN(C)CC4)ccc3OCC)nc12 [Sildenafil]
0.00015 mM compound, sheet ADP_ATP_glo081724 (3)
  raw luminescence, HsERK8: 2773.07 RLU and 2877.12 RLU and 2182.72 RLU
0.00015 mM compound, sheet Kinase_glo 08142024 (2)
  raw luminescence, HsERK8: 6784.32 RLU and 6634.26 RLU and 5826.91 RLU
0.00015 mM compound, sheet Kinase_glo_080924_IFPS (2)
  raw luminescence, HsERK8: 3800.03 RLU and 4341.28 RLU and 3728.16 RLU
0.00061 mM compound, sheet ADP_ATP_glo081724 (3)
  raw luminescence, HsERK8: 3277.47 RLU and 3338.54 RLU and 3085.21 RLU
0.00061 mM compound, sheet Kinase_glo 08142024 (2)
  raw luminescence, HsERK8: 5721.23 RLU and 5653.6 RLU and 3903.63 RLU
0.00061 mM compound, sheet Kinase_glo_080924_IFPS (2)
  raw luminescence, HsERK8: 1396.94 RLU and 1477.79 RLU and 1381.21 RLU
0.00244 mM compound, sheet ADP_ATP_glo081724 (3)
  raw luminescence, HsERK8: 3469.73 RLU and 3284.26 RLU and 2883.9 RLU
0.00244 mM compound, sheet Kinase_glo 08142024 (2)
  raw luminescence, HsERK8: 7264.08 RLU and 7348.62 RLU and 5611.33 RLU
0.00244 mM compound, sheet Kinase_glo_080924_IFPS (2)
  raw luminescence, HsERK8: 3130.75 RLU and 3411.49 RLU and 2899.43 RLU
0.00977 mM compound, sheet ADP_ATP_glo081724 (3)
  raw luminescence, HsERK8: 2892.95 RLU and 2795.69 RLU and 2354.62 RLU
0.00977 mM compound, sheet Kinase_glo 08142024 (2)
  raw luminescence, HsERK8: 7046.4 RLU and 7135.16 RLU and 5429.57 RLU
0.00977 mM compound, sheet Kinase_glo_080924_IFPS (2)
  raw luminescence, HsERK8: 3247.54 RLU and 3584.42 RLU and 3180.16 RLU
0.03906 mM compound, sheet ADP_ATP_glo081724 (3)
  raw luminescence, HsERK8: 3397.35 RLU and 3566.99 RLU and 3141.76 RLU
0.03906 mM compound, sheet Kinase_glo 08142024 (2)
  raw luminescence, HsERK8: 6515.91 RLU and 6714.58 RLU and 5167.5 RLU
0.03906 mM compound, sheet Kinase_glo_080924_IFPS (2)
  raw luminescence, HsERK8: 3400.26 RLU and 3463.14 RLU and 3305.93 RLU
50 μM ATP, 30 min 30°C, triplicate, n/d = no detectible inhibition, read-out: HsERK8 IC50
  IC50: 8 mM
0.15625 mM compound, sheet ADP_ATP_glo081724 (3)
  raw luminescence, HsERK8: 3281.99 RLU and 3150.8 RLU and 2531.05 RLU
0.15625 mM compound, sheet Kinase_glo 08142024 (2)
  raw luminescence, HsERK8: 6655.4 RLU and 6579.31 RLU and 5562.72 RLU
0.15625 mM compound, sheet Kinase_glo_080924_IFPS (2)
  raw luminescence, HsERK8: 3817.99 RLU and 4080.76 RLU and 3636.08 RLU
0.62500 mM compound, sheet ADP_ATP_glo081724 (3)
  raw luminescence, HsERK8: 3474.25 RLU and 3356.64 RLU and 2585.33 RLU
0.62500 mM compound, sheet Kinase_glo 08142024 (2)
  raw luminescence, HsERK8: 8487.8 RLU and 8306.04 RLU and 6687.1 RLU
0.62500 mM compound, sheet Kinase_glo_080924_IFPS (2)
  raw luminescence, HsERK8: 5547.32 RLU and 5693.3 RLU and 4916.23 RLU
2.50000 mM compound, sheet ADP_ATP_glo081724 (3)
  raw luminescence, HsERK8: 11748.2 RLU and 11610.3 RLU and 8563.49 RLU
2.50000 mM compound, sheet Kinase_glo 08142024 (2)
  raw luminescence, HsERK8: 29728.4 RLU and 30364.6 RLU and 22572.1 RLU
2.50000 mM compound, sheet Kinase_glo_080924_IFPS (2)
  raw luminescence, HsERK8: 13814.9 RLU and 12641.6 RLU and 13534.9 RLU
10.00000 mM compound, sheet ADP_ATP_glo081724 (3)
  raw luminescence, HsERK8: 18796.3 RLU and 18852.8 RLU and 18760.1 RLU
10.00000 mM compound, sheet Kinase_glo 08142024 (2)
  raw luminescence, HsERK8: 37233.5 RLU and 36922.8 RLU and 36986.2 RLU
10.00000 mM compound, sheet Kinase_glo_080924_IFPS (2), signal = ATP left
  raw luminescence, HsERK8: 19808.3 RLU and 19442.1 RLU and 19894.1 RLU
Inhibitor 0.00976562 mM, sheet Sil_Pred3, read 3
  Luminescence Raw (Kinase-Glo): 76824 and 76849.7 and 75718.2
Inhibitor 0.0195312 mM, sheet Sil_Pred3, read 3
  Luminescence Raw (Kinase-Glo): 84913.3 and 83327.3 and 84201.1
Inhibitor 0.0390625 mM, sheet Sil_Pred3, read 3
  Luminescence Raw (Kinase-Glo): 86810.9 and 87656.6 and 88003.3
Inhibitor 0.078125 mM, sheet Sil_Pred3, read 3
  Luminescence Raw (Kinase-Glo): 83688.1 and 81764.7 and 82605.8
Inhibitor 0.15625 mM, sheet Sil_Pred3, read 3
  Luminescence Raw (Kinase-Glo): 84571.3 and 87872.1 and 86433.7
Inhibitor 0.3125 mM, sheet Sil_Pred3, read 3
  Luminescence Raw (Kinase-Glo): 80438.8 and 81286.8 and 83022.8
Inhibitor 0.625 mM, sheet Sil_Pred3, read 3
  Luminescence Raw (Kinase-Glo): 81408.6 and 81148.6 and 80450.5
Inhibitor 0.00976562, sheet Sil_Pred1, read 1
  Luminescence Raw (Kinase-Glo): 87353.2 and 86988.7 and 86809.9
Inhibitor 0.00976562, sheet Sil_Pred2, read 2
  Luminescence Raw (Kinase-Glo): 79598.9 and 79331.5 and 78826.8
Inhibitor 0.0195312, sheet Sil_Pred1, read 1
  Luminescence Raw (Kinase-Glo): 97908.4 and 96150.4 and 96258.1
Inhibitor 0.0195312, sheet Sil_Pred2, read 2
  Luminescence Raw (Kinase-Glo): 87627.4 and 86394.8 and 87122.7
Inhibitor 0.0390625, sheet Sil_Pred1, read 1
  Luminescence Raw (Kinase-Glo): 100125 and 101023 and 101243
Inhibitor 0.0390625, sheet Sil_Pred2, read 2
  Luminescence Raw (Kinase-Glo): 89720.6 and 90218.3 and 91030
Inhibitor 0.078125, sheet Sil_Pred1, read 1
  Luminescence Raw (Kinase-Glo): 96870.1 and 94163.1 and 94380.9
Inhibitor 0.078125, sheet Sil_Pred2, read 2
  Luminescence Raw (Kinase-Glo): 86171.5 and 85045.8 and 85399.3
Inhibitor 0.15625, sheet Sil_Pred1, read 1
  Luminescence Raw (Kinase-Glo): 97571.5 and 101844 and 101823
Inhibitor 0.15625, sheet Sil_Pred2, read 2
  Luminescence Raw (Kinase-Glo): 87601.8 and 91464.9 and 91334.7
Inhibitor 0.3125, sheet Sil_Pred1, read 1
  Luminescence Raw (Kinase-Glo): 91875.5 and 94802.6 and 96700.5
Inhibitor 0.3125, sheet Sil_Pred2, read 2
  Luminescence Raw (Kinase-Glo): 83203.8 and 85106.3 and 85450.5
Inhibitor 0.625 (mM per sheet Pred3), sheet Kinase-Glo802124_Sil_Pred1, read 1, triplicate wells
  Luminescence Raw (Kinase-Glo): 95077.7 and 94021 and 92790.1
Inhibitor 0.625, sheet Sil_Pred2, read 2
  Luminescence Raw (Kinase-Glo): 85048.1 and 84027.1 and 84180.6
